Laboratory results as given in the supplement of paper PMC10307832.

How the values were obtained:
Assay in all cases: relative viability (nuclei count vs DMSO), 5 days (fraction); higher = more cells survive
Doramapimod + Luminespib = compound: Cc1ccc(-n2nc(C(C)(C)C)cc2NC(=O)Nc2ccc(OCCN3CCOCC3)c3ccccc23)cc1 [Doramapimod] + CCNC(=O)c1noc(-c2cc(C(C)C)c(O)cc2O)c1-c1ccc(CN2CCOCC2)cc1 [Luminespib] (partner 0.01 µM)
Summary of the method: (§1)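 After 5 days of treatment, lung cancer cells in 1536-well plates were fixed and stained in a single step (final 0.05% Triton X-100, 1% formaldehyde, 1 ug/ml Hoechst) and their nuclei counted on 4× images. Treatment had been applied by pin tool the day after seeding as one drug alone or as a fixed anchor-drug dose with five library-drug doses (not always all listed) in √10 steps. Relative viability is the nuclei count of treated wells divided by that of vehicle wells, and values are medians of duplicate plates.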

RAF265 + OSI-027 = compound: Cn1c(Nc2ccc(C(F)(F)F)cc2)nc2cc(Oc3ccnc(-c4ncc(C(F)(F)F)[nH]4)c3)ccc21 [RAF265] + COc1cccc2cc(-c3nc([C@H]4CC[C@H](C(=O)O)CC4)n4ncnc(N)c34)[nH]c12 [OSI-027] (partner 0.5 µM)
Summary of the method: as §1

RAF265 + Pemetrexed = compound: Cn1c(Nc2ccc(C(F)(F)F)cc2)nc2cc(Oc3ccnc(-c4ncc(C(F)(F)F)[nH]4)c3)ccc21 [RAF265] + Nc1nc2[nH]cc(CCc3ccc(C(=O)N[C@@H](CCC(=O)O)C(=O)O)cc3)c2c(=O)[nH]1 [Pemetrexed] (partner 0.2 µM)
Summary of the method: as §1

Doramapimod + Foretinib = compound: Cc1ccc(-n2nc(C(C)(C)C)cc2NC(=O)Nc2ccc(OCCN3CCOCC3)c3ccccc23)cc1 [Doramapimod] + COc1cc2c(Oc3ccc(NC(=O)C4(C(=O)Nc5ccc(F)cc5)CC4)cc3F)ccnc2cc1OCCCN1CCOCC1 [Foretinib] (partner 0.25 µM)
Summary of the method: as §1

UMC-11
relative viability (Doramapimod + Luminespib; first compound 0.02 µM): 0.911 | relative viability (Doramapimod + Luminespib; first compound 0.06325 µM): 0.869 | relative viability (Doramapimod + Luminespib; first compound 0.2 µM): 0.904 | relative viability (Doramapimod + Luminespib; first compound 0.6325 µM): 0.965 | relative viability (Doramapimod + Luminespib; first compound 2 µM): 0.913 | relative viability (RAF265 + OSI-027; first compound 0.01 µM): 0.491 | relative viability (RAF265 + OSI-027; first compound 0.03162 µM): 0.48 | relative viability (RAF265 + OSI-027; first compound 0.1 µM): 0.464 | relative viability (RAF265 + OSI-027; first compound 0.3162 µM): 0.457 | relative viability (RAF265 + OSI-027; first compound 1 µM): 0.378 | relative viability (RAF265 + Pemetrexed; first compound 0.01 µM): 0.689 | relative viability (RAF265 + Pemetrexed; first compound 0.03162 µM): 0.854 | relative viability (RAF265 + Pemetrexed; first compound 0.1 µM): 0.764 | relative viability (RAF265 + Pemetrexed; first compound 0.3162 µM): 0.761 | relative viability (RAF265 + Pemetrexed; first compound 1 µM): 0.639 | relative viability (Doramapimod + Foretinib; first compound 0.02 µM): 0.954 | relative viability (Doramapimod + Foretinib; first compound 0.06325 µM): 0.936 | relative viability (Doramapimod + Foretinib; first compound 0.2 µM): 0.932 | relative viability (Doramapimod + Foretinib; first compound 0.6325 µM): 0.988 | relative viability (Doramapimod + Foretinib; first compound 2 µM): 0.982
